According to patent US11104677B2, “Toll-like receptor 9 antagonists” (FRAUNHOFER-GESELLSCHAFT ZUR FÖRDERUNG DER ANGEWANDTEN …, priority 2015, dated 2021):
pIC50: −log10 of the molar value.

Target: T1, TLR9 (Homo sapiens, UniProt Q9NR96)
T1 construct: expressed in transfected cells; host or cells: NIH 3T3 fibroblasts (mouse), stably transfected, NF-kB driven SEAP reporter
T1 sequence (Q9NR96 26-1032): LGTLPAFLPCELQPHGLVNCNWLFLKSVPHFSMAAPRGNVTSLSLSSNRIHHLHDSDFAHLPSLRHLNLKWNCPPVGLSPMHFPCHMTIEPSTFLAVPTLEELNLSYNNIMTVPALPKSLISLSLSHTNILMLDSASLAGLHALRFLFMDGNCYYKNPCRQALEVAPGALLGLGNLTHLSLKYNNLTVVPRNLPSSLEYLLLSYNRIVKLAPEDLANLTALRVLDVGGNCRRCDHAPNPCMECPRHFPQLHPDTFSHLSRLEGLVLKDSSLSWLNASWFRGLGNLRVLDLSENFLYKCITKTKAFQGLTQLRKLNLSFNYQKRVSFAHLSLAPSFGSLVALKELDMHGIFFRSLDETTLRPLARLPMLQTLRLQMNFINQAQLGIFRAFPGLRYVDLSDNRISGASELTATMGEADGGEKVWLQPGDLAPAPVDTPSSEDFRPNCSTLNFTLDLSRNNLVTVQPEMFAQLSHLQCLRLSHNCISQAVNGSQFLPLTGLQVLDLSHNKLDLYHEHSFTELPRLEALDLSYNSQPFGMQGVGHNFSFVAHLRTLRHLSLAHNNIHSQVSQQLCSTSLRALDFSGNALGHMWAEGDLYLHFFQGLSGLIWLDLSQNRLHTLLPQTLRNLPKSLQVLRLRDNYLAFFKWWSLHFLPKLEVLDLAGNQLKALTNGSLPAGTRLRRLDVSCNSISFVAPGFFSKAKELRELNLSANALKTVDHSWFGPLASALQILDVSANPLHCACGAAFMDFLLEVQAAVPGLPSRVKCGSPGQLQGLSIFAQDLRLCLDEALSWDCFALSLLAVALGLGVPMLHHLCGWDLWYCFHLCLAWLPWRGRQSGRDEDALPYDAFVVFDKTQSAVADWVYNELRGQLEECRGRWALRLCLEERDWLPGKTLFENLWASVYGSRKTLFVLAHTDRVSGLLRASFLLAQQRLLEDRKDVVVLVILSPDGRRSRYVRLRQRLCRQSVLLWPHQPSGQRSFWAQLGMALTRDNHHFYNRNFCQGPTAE
Experiment: cell-based reporter assay (NIH 3T3 reporter cell line expressing TLR9, NF-kB driven SEAP, stimulated with CpG ODN 2216)
Conditions: Table 5, first 30 candidates, ODN 2216 agonist, n≥3; for pIC50: read-out: IC50 in
Protocol: In context with the present invention, the ‘IC50 value’ is the half maximum inhibitory concentration which is a measure of the effectiveness of a substance inhibiting the function of the TLR9. The IC50 value can be determined by a functional antagonist assay or a competition binding assay. Preferably, the IC50 value is determined by the cell-based reporter assay in section 3, below, of the examples.
A cell based test-system that allows PAMPs to be identified and differentiated via pattern recognition receptors (PRRs) in a reporter gene assay was used (DE 10 2006 031 483, EP 2 041 172). For this assay human PRRs and co-receptors were stably transfected and expressed in NIH 3T3 fibroblasts. This cell line expresses no other PRRs and contains a reporter gene which is activated by PRR-activation. The induction of receptor complexes by their ligands leads, after a signalling cascade, to an activation of transcription factor NF-kB, which regulates the expression of an additional integrated reporter gene, a secreted alkaline phosphatase (SEAP) (Burger-Kentischer, A.; Abele, I. S.; Finkelmeier, D.; Wiesmüller, K.-H.; Rupp, S., A new cell-based innate immune receptor assay for the examination of receptor activity, ligand specificity, signalling pathways and the detection of pyrogens. J. Immunol. Methods 2010, 358 (1), 93-103).
This test system mimics elements of the innate human immune system and can selectively recognize a large number of PAMPs with high sensitivity. Consequently, the PRR-specific cell-based high-throughput feature of the reporter cell lines will provide a fast, flexible and convenient means for lead compound screening in the pharmaceutical drug development fields. For the in vitro screening of the top candidates identified at IDR, the Fraunhofer IGB used this cell-based reporter system to identify TLR9 antagonists in order to determine their activity as well their biocompatibility. Within a first step the NIH3T3 cell line expressing TLR9 was used to measure the inhibitory effect of the TLR9 antagonists.
For the experiment the reporter cell line expressing TL9 was plated in 96-well cell culture plates at a density of 0.3×10^5 cells in DMEM media supplemented with 10% FCS (Invitrogen), 1% L-glutamine (200 mM Invitrogen) and 1% Penicillin-Streptomycin (PenStrep: 100×, Invitrogen). The cells were incubated for 16 h to grow adherent monolayers at 37° C. in a 5% saturated CO2 humidified atmosphere. After overnight incubation, the media was removed and replaced by DMEM medium supplemented with 1% PenStrep, 1% L-glutamine and 0.5% FCS. The media change is important to avoid a unspecific background signal, caused by active remaining phosphatases present in the FCS. The cells are then stimulated with a specific ligand non-methylated CpG ODN 2216 agonist (Invivogen) and the potential antagonists using different concentrations, namely within a range of concentrations of the potential antagonists starting with 0.025 μM (for the antagonist with the highest activity) up to 14 mM for the antagonists with lowest activities.
The ODN ligand has the sequence 5′-ggGGGACGA:TCGTCgggggg-3′ (SEQ ID No. 1). Those represented by capital letters are phosphodiesters, and those in small letters are phosphorothioate. The Palindrome is underlined.
The cells were again incubated in a humidified atmosphere for 16h leading to the expression or reduced expression of SEAP and its secretion into the media. Binding of the antagonist leads to a block of the TLR9, resulting in no or in a reduced expression of the reporter gene (SEAP). Therefore, 50 μl supernatant were taken from the cells and transferred into a 96-well PS microplate flat bottom (Greiner BIO-ONE). The enzyme substrate reaction was initiated by adding 50 μl of the specific substrate. SEAP catalyses the hydrolysis of pNPP to the final product para-nitrophenol (yellow), which can be detected in a photometric analysis using an UV-VIS reader at 405 nm. […]

SMILES | pIC50 | IC50 in [μM]
Cc1cc(-c2ccc(-n3ccnc3)cc2)nc2ccccc12 [T5803292, n1c2c(cccc2)c(cc1-c1ccc(-n2ccnc2)cc1)C] | 2.37 | 
COc1ccc(-n2c(-c3ccncc3)nc3ccccc32)cc1 [T5771455, O(C)c1ccc(-n2c3c(nc2-c2ccncc2)cccc3)cc1] | 4.92 | 
COc1ccc(OCCN(C)c2ncnc3c2oc2ccccc23)cc1 [T6593995, o1c2c(ncnc2N(CCOc2ccc(OC)cc2)C)c2c1cccc2] | 3.04 | 
Cc1ccc(N2CCN(/N=C/C=C/c3ccccc3)CC2)cc1 [T0505-2171, N(/N1CCN(CC1)c1ccc(cc1)C)═C\C═C\c1ccccc1] |  | agonist
